Experimental data taken from ChEMBL document CHEMBL4229379, “Synthesis and structure-activity relationship of novel bisindole amidines active against MDR Gram-positive and Gram-negative bacteria” (Eur J Med Chem, 2018).
≈ marks a conversion by molar mass, not a printed value.

Experiments:
Pseudomonas aeruginosa [1] = experiment: Antibacterial activity against Pseudomonas aeruginosa PAO1 after 18 hrs by CLSI broth microdilution method; type: functional; conditions: PAO1, 18 h
[2] = Cytotoxicity against HEK293T cells assessed as reduction in cell viability after 48 hrs by MTS assay; type: cell-based, HEK-293T; conditions: human
Enterococcus faecium [3] = experiment: Antibacterial activity against vancomycin-resistant Enterococcus faecium ATCC 700221 after 18 hrs by CLSI broth microdilution method; type: functional; conditions: ATCC 700221, 18 h
Proteus mirabilis = experiment: Antibacterial activity against Proteus mirabilis 12-6 after 18 hrs by CLSI broth microdilution method; type: functional; conditions: 12-6, 18 h
Enterococcus faecalis [4] = experiment: Antibacterial activity against vancomycin-sensitive Enterococcus faecalis 12-5 after 18 hrs by CLSI broth microdilution method; type: functional; conditions: 12-5, 18 h
[5] = tested on: Stenotrophomonas maltophilia; experiment: Antibacterial activity against Stenotrophomonas maltophilia ATCC 13636 after 18 hrs by CLSI broth microdilution method; type: functional; conditions: ATCC 13636, 18 h
Staphylococcus aureus [6] = experiment: Antibacterial activity against methicillin-resistant Staphylococcus aureus 12-33 after 18 hrs by CLSI broth microdilution method; type: functional; conditions: 12-33, 18 h
Staphylococcus aureus [7] = experiment: Antibacterial activity against methicillin-sensitive Staphylococcus aureus 12-28 after 18 hrs by CLSI broth microdilution method; type: functional; conditions: 12-28, 18 h
Klebsiella pneumoniae [8] = experiment: Antibacterial activity against extended-spectrum beta-lactamase harboring Klebsiella pneumoniae ATCC 700603 after 18 hrs by CLSI broth microdilution method; type: functional; conditions: Klebsiella pneumoniae, 700603, 18 h
Enterococcus faecalis [9] = experiment: Antibacterial activity against vancomycin-resistant Enterococcus faecalis ATCC 51299 after 18 hrs by CLSI broth microdilution method; type: functional; conditions: ATCC 51299, 18 h
[10] = tested on: Staphylococcus epidermidis; experiment: Antibacterial activity against methicillin-sensitive Staphylococcus epidermidis ATCC 12228 after 18 hrs by CLSI broth microdilution method; type: functional; conditions: ATCC 12228, 18 h
Pseudomonas aeruginosa [11] = experiment: Antibacterial activity against Pseudomonas aeruginosa ATCC 27853 after 18 hrs by CLSI broth microdilution method; type: functional; conditions: ATCC 27853, 18 h
[12] = tested on: Acinetobacter calcoaceticus; experiment: Antibacterial activity against Acinetobacter calcoaceticus ATCC 19606 after 18 hrs by CLSI broth microdilution method; type: functional; conditions: ATCC 19606, 18 h
Klebsiella aerogenes = experiment: Antibacterial activity against Enterobacter aerogenes ATCC 13048 after 18 hrs by CLSI broth microdilution method; type: functional; conditions: ATCC 13048, 18 h
Klebsiella pneumoniae [13] = experiment: Antibacterial activity against extended-spectrum beta-lactamase deficient Klebsiella pneumoniae 7 after 18 hrs by CLSI broth microdilution method; type: functional; conditions: Klebsiella pneumoniae, 7, 18 h
Klebsiella pneumoniae [14] = experiment: Antibacterial activity against new delhi metallo-beta-lactamase-1 harboring Klebsiella pneumoniae ATCC BAA-2146 after 18 hrs by CLSI broth microdilution method; type: functional; conditions: ATCC BAA-2146, 18 h
[15] = tested on: Staphylococcus epidermidis; experiment: Antibacterial activity against methicillin-resistant Staphylococcus epidermidis 12-8 after 18 hrs by CLSI broth microdilution method; type: functional; conditions: 12-8, 18 h
Escherichia coli [16] = experiment: Antibacterial activity against extended-spectrum beta-lactamase deficient Escherichia coli 1515 after 18 hrs by CLSI broth microdilution method; type: functional; conditions: Escherichia coli, 1515, 18 h
Serratia marcescens = experiment: Antibacterial activity against Serratia marcescens ATCC 21074 after 18 hrs by CLSI broth microdilution method; type: functional; conditions: ATCC 21074, 18 h
Enterococcus faecium [17] = experiment: Antibacterial activity against vancomycin-resistant Enterococcus faecium 12-1 after 18 hrs by CLSI broth microdilution method; type: functional; conditions: 12-1, 18 h
Citrobacter freundii = experiment: Antibacterial activity against Citrobacter freundii ATCC 43864 after 18 hrs by CLSI broth microdilution method; type: functional; conditions: ATCC 43864, 18 h
Proteus vulgaris = experiment: Antibacterial activity against Proteus vulgaris ATCC 29905 after 18 hrs by CLSI broth microdilution method; type: functional; conditions: ATCC 29905, 18 h
Escherichia coli [18] = experiment: Antibacterial activity against extended-spectrum beta-lactamase harboring Escherichia coli 12-15 after 18 hrs by CLSI broth microdilution method; type: functional; conditions: 12-15, 18 h
Providencia rettgeri = experiment: Antibacterial activity against Providencia rettgeri ATCC 31052 after 18 hrs by CLSI broth microdilution method; type: functional; conditions: ATCC 31052, 18 h
Staphylococcus aureus [19] = experiment: Antibacterial activity against methicillin-sensitive Staphylococcus aureus ATCC 29213 after 18 hrs by CLSI broth microdilution method; type: functional; conditions: ATCC 29213, 18 h
Escherichia coli [20] = experiment: Antibacterial activity against extended-spectrum beta-lactamase deficient Escherichia coli ATCC 25922 after 18 hrs by CLSI broth microdilution method; type: functional; conditions: ATCC 25922, 18 h
Staphylococcus aureus [21] = experiment: Antibacterial activity against methicillin-sensitive Staphylococcus aureus 15 after 18 hrs by CLSI broth microdilution method; type: functional; conditions: Staphylococcus aureus, 15, 18 h
Pseudomonas aeruginosa [22] = experiment: Antibacterial activity against Pseudomonas aeruginosa 12-16 after 18 hrs by CLSI broth microdilution method; type: functional; conditions: 12-16, 18 h
Staphylococcus aureus [23] = experiment: Antibacterial activity against methicillin-resistant Staphylococcus aureus ATCC 33591 after 18 hrs by CLSI broth microdilution method; type: functional; conditions: ATCC 33591, 18 h
Klebsiella pneumoniae [24] = experiment: Antibacterial activity against extended-spectrum beta-lactamase deficient Klebsiella pneumoniae 12-4 after 18 hrs by CLSI broth microdilution method; type: functional; conditions: 12-4, 18 h
Enterococcus faecium [25] = experiment: Antibacterial activity against vancomycin-sensitive Enterococcus faecium 12-3 after 18 hrs by CLSI broth microdilution method; type: functional; conditions: 12-3, 18 h
Escherichia coli [26] = experiment: Antibacterial activity against extended-spectrum beta-lactamase deficient Escherichia coli 12-14 after 18 hrs by CLSI broth microdilution method; type: functional; conditions: 12-14, 18 h
Enterococcus faecalis [27] = experiment: Antibacterial activity against vancomycin-sensitive Enterococcus faecalis ATCC 29212 after 18 hrs by CLSI broth microdilution method; type: functional; conditions: ATCC 29212, 18 h
Klebsiella pneumoniae [28] = experiment: Antibacterial activity against extended-spectrum beta-lactamase harboring Klebsiella pneumoniae 12-8 after 18 hrs by CLSI broth microdilution method; type: functional; conditions: 12-8, 18 h
[29] = tested on: Staphylococcus epidermidis; experiment: Antibacterial activity against methicillin-sensitive Staphylococcus epidermidis 12-6 after 18 hrs by CLSI broth microdilution method; type: functional; conditions: 12-6, 18 h
Enterococcus faecalis [30] = experiment: Antibacterial activity against vancomycin-resistant Enterococcus faecalis 09-9 after 18 hrs by CLSI broth microdilution method; type: functional; conditions: 09-9, 18 h
Enterobacter cloacae = experiment: Antibacterial activity against Enterobacter cloacae ATCC 43560 after 18 hrs by CLSI broth microdilution method; type: functional; conditions: ATCC 43560, 18 h

CN(C)C(=N)c1ccc2cc(-c3ccc4ccc(-c5cc6ccc(C(=N)N(C)C)cc6[nH]5)cc4c3)[nH]c2c1
MIC (Pseudomonas aeruginosa [1]): > 128 µg/mL
CC50 at 48 h [2]: 13.6 µg/mL (≈ 27.4 µM)
MIC (Enterococcus faecium [3]): 128 µg/mL (≈ 257 µM)
MIC (Proteus mirabilis): > 128 µg/mL
MIC (Enterococcus faecalis [4]): 128 µg/mL (≈ 257 µM)
MIC [5]: > 128 µg/mL
MIC (Staphylococcus aureus [6]): 8 µg/mL (≈ 16 µM)
MIC (Staphylococcus aureus [7]): 4 µg/mL (≈ 8.02 µM)
MIC (Klebsiella pneumoniae [8]): > 128 µg/mL
MIC (Enterococcus faecalis [9]): 128 µg/mL (≈ 257 µM)
MIC [10]: 4 µg/mL (≈ 8.02 µM)
MIC (Pseudomonas aeruginosa [11]): > 128 µg/mL
MIC [12]: > 128 µg/mL
MIC (Klebsiella aerogenes): > 128 µg/mL
MIC (Klebsiella pneumoniae [13]): > 128 µg/mL
MIC (Klebsiella pneumoniae [14]): > 128 µg/mL
MIC [15]: 4 µg/mL (≈ 8.02 µM)
MIC (Escherichia coli [16]): > 128 µg/mL
MIC (Serratia marcescens): > 128 µg/mL
MIC (Enterococcus faecium [17]): 16 µg/mL (≈ 32.1 µM)
MIC (Citrobacter freundii): > 128 µg/mL
MIC (Proteus vulgaris): > 128 µg/mL
MIC (Escherichia coli [18]): > 128 µg/mL
MIC (Providencia rettgeri): > 128 µg/mL
MIC (Staphylococcus aureus [19]): 4 µg/mL (≈ 8.02 µM)
MIC (Escherichia coli [20]): > 128 µg/mL
MIC (Staphylococcus aureus [21]): 4 µg/mL (≈ 8.02 µM)
MIC (Pseudomonas aeruginosa [22]): > 128 µg/mL
MIC (Staphylococcus aureus [23]): 4 µg/mL (≈ 8.02 µM)
MIC (Klebsiella pneumoniae [24]): > 128 µg/mL
MIC (Enterococcus faecium [25]): 32 µg/mL (≈ 64.2 µM)
MIC (Escherichia coli [26]): > 128 µg/mL
MIC (Enterococcus faecalis [27]): 128 µg/mL (≈ 257 µM)
MIC (Klebsiella pneumoniae [28]): > 128 µg/mL
MIC [29]: 64 µg/mL (≈ 128 µM)
MIC (Enterococcus faecalis [30]): 128 µg/mL (≈ 257 µM)
MIC (Enterobacter cloacae): > 128 µg/mL

N=C(c1ccc2cc(-c3ccc(-c4cc5ccc(C(=N)N6CCOCC6)cc5[nH]4)cc3)[nH]c2c1)N1CCOCC1
MIC (Pseudomonas aeruginosa [1]): > 128 µg/mL
CC50 at 48 h [2]: 16.4 µg/mL (≈ 30.9 µM)
MIC (Enterococcus faecium [3]): 4 µg/mL (≈ 7.51 µM)
MIC (Proteus mirabilis): 32 µg/mL (≈ 60.1 µM)
MIC (Enterococcus faecalis [4]): 8 µg/mL (≈ 15 µM)
MIC [5]: > 128 µg/mL
MIC (Staphylococcus aureus [6]): 0.5 µg/mL (≈ 0.939 µM)
MIC (Staphylococcus aureus [7]): 0.5 µg/mL (≈ 0.939 µM)
MIC (Klebsiella pneumoniae [8]): 16 µg/mL (≈ 30 µM)
MIC (Enterococcus faecalis [9]): 4 µg/mL (≈ 7.51 µM)
MIC [10]: 0.5 µg/mL (≈ 0.939 µM)
MIC (Pseudomonas aeruginosa [11]): > 128 µg/mL
MIC [12]: 32 µg/mL (≈ 60.1 µM)
MIC (Klebsiella aerogenes): 8 µg/mL (≈ 15 µM)
MIC (Klebsiella pneumoniae [13]): 8 µg/mL (≈ 15 µM)
MIC (Klebsiella pneumoniae [14]): 8 µg/mL (≈ 15 µM)
MIC [15]: 0.5 µg/mL (≈ 0.939 µM)
MIC (Escherichia coli [16]): 4 µg/mL (≈ 7.51 µM)
MIC (Serratia marcescens): > 128 µg/mL
MIC (Enterococcus faecium [17]): 2 µg/mL (≈ 3.75 µM)
MIC (Citrobacter freundii): 4 µg/mL (≈ 7.51 µM)
MIC (Proteus vulgaris): 8 µg/mL (≈ 15 µM)
MIC (Escherichia coli [18]): 4 µg/mL (≈ 7.51 µM)
MIC (Providencia rettgeri): 8 µg/mL (≈ 15 µM)
MIC (Staphylococcus aureus [19]): 1 µg/mL (≈ 1.88 µM)
MIC (Escherichia coli [20]): 4 µg/mL (≈ 7.51 µM)
MIC (Staphylococcus aureus [21]): 0.5 µg/mL (≈ 0.939 µM)
MIC (Pseudomonas aeruginosa [22]): > 128 µg/mL
MIC (Staphylococcus aureus [23]): 0.5 µg/mL (≈ 0.939 µM)
MIC (Klebsiella pneumoniae [24]): 16 µg/mL (≈ 30 µM)
MIC (Enterococcus faecium [25]): 4 µg/mL (≈ 7.51 µM)
MIC (Escherichia coli [26]): 4 µg/mL (≈ 7.51 µM)
MIC (Enterococcus faecalis [27]): 4 µg/mL (≈ 7.51 µM)
MIC (Klebsiella pneumoniae [28]): 8 µg/mL (≈ 15 µM)
MIC [29]: 0.5 µg/mL (≈ 0.939 µM)
MIC (Enterococcus faecalis [30]): 4 µg/mL (≈ 7.51 µM)
MIC (Enterobacter cloacae): 4 µg/mL (≈ 7.51 µM)
